Results reported in the NIST ThermoML archive (doi:10.1021/je300377a).

Experiment: molar heat capacity at constant pressure
Conditions: 101.33 kPa, Liquid

CCCCCCCC[N+]1(CC)CCCCC1.O=S(=O)([N-]S(=O)(=O)C(F)(F)F)C(F)(F)F
Conditions	molar heat capacity at constant pressure [J/K/mol]
265.01 K	703.63
275 K	719.33
285.01 K	730.47
295.01 K	743.64
305.01 K	763.4
315.01 K	782.14
325.01 K	799.37
335.02 K	814.56
345.02 K	829.25
355.01 K	844.96
365 K	868.26
375.01 K	882.44
385.02 K	903.72

CCCCCCCC[n+]1ccccc1.O=S(=O)([N-]S(=O)(=O)C(F)(F)F)C(F)(F)F [1-octylpyridinium bis((trifluoromethyl)sulfonyl)amide]
Conditions	molar heat capacity at constant pressure [J/K/mol]
265.04 K	582.55
275.12 K	597.2
285.05 K	609.01
295.03 K	620.82
305.03 K	636.89
315.07 K	652.95
325.13 K	669.02
335.03 K	681.77
345.1 K	694.53
355 K	707.76
365.05 K	721.93
375.09 K	738.47
385.13 K	755.95

CCCC[N+]1(C)CCCC1.O=S(=O)([N-]S(=O)(=O)C(F)(F)F)C(F)(F)F
Conditions	molar heat capacity at constant pressure [J/K/mol]
265.04 K	472.25
275.12 K	484.93
285.06 K	492.11
295.03 K	498.44
305.03 K	507.31
315.07 K	515.76
325.13 K	524.63
335.04 K	531.39
345.11 K	539.84
355 K	547.87
365.05 K	554.62
375.09 K	563.07
385.14 K	576.17

CCCCCCCCn1cc[n+](C)c1.O=S(=O)([N-]S(=O)(=O)C(F)(F)F)C(F)(F)F
Conditions	molar heat capacity at constant pressure [J/K/mol]
265.02 K	621.44
275 K	628.1
285.01 K	636.18
295.01 K	643.79
305.02 K	651.87
315.02 K	660.43
325.02 K	668.51
335.02 K	675.65
345.02 K	684.21
355.02 K	694.67
360 K	706.08
375.01 K	720.34
385.03 K	737.93

CCCCCCCC[N+]1(C)CCCC1.O=S(=O)([N-]S(=O)(=O)C(F)(F)F)C(F)(F)F
Conditions	molar heat capacity at constant pressure [J/K/mol]
265.06 K	605.8
275.13 K	616.33
285.07 K	626.86
295.04 K	636.43
305.04 K	647.91
315.07 K	658.44
325.14 K	668.97
335.04 K	679.49
345.11 K	690.02
355.01 K	700.55
365.05 K	711.08
375.01 K	721.6
385.14 K	732.13
